Measured values from patent publication US9364462B2, “Alpha-1-adrenergic receptor agonist therapy” (The Regents of the University of California, priority 2012, dated 2016).

Key:
kinase ERK = test: ERK activation in neonatal rat cardiac muscle cells in vitro; type: cell-based; settings: FIG. 1
Text: FIG. 1. A61603 protects neonatal cardiac muscle cells.

[1] = 1 week subcutaneous infusion (osmotic minipump) in adult mice: BP and heart signaling; type: in vivo, mouse
Experimental: FIG. 5. A61603 activates heart signaling at a BP-neutral dose. A61603 was infused subcutaneously (osmotic minipump) for 1 week in adult mice, and BP was measured daily. There was no change in average BP at the low dose, in agreement with the intravenous (IV) route in another study, and with phenylephrine (PE) given in humans (left side). BP effects of A61603 are absent in the alpha-1A KO (AKO), again showing the selectivity of the drug for that receptor (left). At the end of 1 week, the heart was removed to measure ERK activation, and increases in heart mRNAs and area (size), reflecting protective (ERK) adaptive (mRNAs, area) effects on heart muscle cells. A61603 at the low dose of 10 ng/kg/d increased these endpoints.
The classic effect of alpha-1-agonists is to increase BP by stimulating smooth muscle cells to contract. It could be a disadvantage in heart failure (HF) therapy to increase BP excessively. On the other hand, all current recommended drugs in HF reduce BP, and a drug that increased BP slightly might have a strong therapeutic advantage. […] The foregoing experiments provided the rationale to test treatment with A61603 at 10 ng/kg/d in a mouse model of cardiomyopathy and HF.

[2] = Pressure overload cardiomyopathy (transverse aortic constriction, TAC) model; type: in vivo, mouse
Text: FIG. 7. A61603 rescues pressure overload cardiomyopathy. Mice had echo 2 weeks after TAC, at which time they were randomized to treatment with A61603, at the same low dose, or vehicle. Fractional shortening, an index of cardiac function, was depressed by TAC, and improved with A61603, but not with vehicle.
FIG. 8. A61603 in pressure overload cardiomyopathy improves growth and protection, and reduces fibrosis.
Studies in mice looking at alpha-1 agonist therapy, using A61603, in a model of heart failure due to pressure overload (transverse aortic constriction model). A model of pressure overload was tested for 2 reasons: (1) test generality of A61603 effects in different types of cardiomyopathy; and (2) test treatment (rescue), rather than prevention, i.e. A61603 given at an interval of time after injury, when cardiomyopathy was already manifest. We used an adult mouse model of transverse aortic constriction (TAC), with the aorta surgically narrowed, so that the heart had to pump against an increased pressure (pressure overload). […] A61603 treatment rescued the cardiomyopathy, as measured by heart function (FIG. 7). […] Thus improvement in function caused by A61603 was again due to direct effects on cardiac muscle cells. The alpha-1A agonist A61603 at a low dose rescues (e.g. treats) cardiomyopathy due to pressure overload, an injury that simulates several types of cardiac disease, and the mechanism is improvement of cardiac myocytes.

[3] = Ischemic, post-myocardial infarction (LAD ligation) cardiomyopathy model; type: in vivo, mouse
Text: FIG. 9. A61603 rescues ischemic, post-myocardial infarction (MI) cardiomyopathy. Mice had echo 4 weeks after LAD ligation (MI), at which time they were randomized to treatment with A61603, at the same low dose, or vehicle.
FIG. 10. A61603 in ischemic, post-MI cardiomyopathy improves growth and protection, and reduces fibrosis. Values are normalized to mice treated with vehicle. Mice treated with A61603 had smaller atria, less fibrosis, higher fractional shortening (FS), smaller left ventricle end diastolic diameter (LVEDD), and larger myocyte size in the surviving heart (MC CSA). The size of the MI was unchanged, as expected because treatment started 4 weeks after LAD ligation, by which time the MI had healed.
Studies in mice looking at alpha-1 agonist therapy, using A61603, in a model of heart failure and cardiomyopathy due to myocardial infarction (heart attack). We used an animal model of myocardial infarction to test whether the alpha-1A agonist A61603 could rescue (e.g. treat) cardiomyopathy, when treatment was initiated at some time after injury (e.g. after the acute period was complete). Rescue mimics what is seen commonly in the clinic, where patients are admitted with HF, caused by a cardiomyopathy that has been present for months or years. This model was a model of ischemic, post-myocardial infarction (MI) cardiomyopathy. Ischemic heart disease caused by coronary atherosclerosis is extremely common and ischemic and overload cardiomyopathies associated with these diseases comprise the largest group of patients with HF. We used a mouse model of coronary ligation to cause MI. The mouse coronary ligation was permanent, however, patients typically have some form of reperfusion (e.g. angioplasty). We used a mouse model where the MI is healed completely, which is typical for patients admitted with HF late after MI. A61603 treatment rescued (e.g treated) the cardiomyopathy, as measured by heart function (FIG. 9A-B).
The improvement in function caused by A61603 after MI was again due to direct effects on ardiac muscle cells (FIG. 10). In this case, the effect was to increase the size of muscle cells in the surviving heart wall, helping restore the total amount of contracting heart muscle. There was also less fibrosis than control. The smaller weight of the atria indicates lower pressures within the left ventricle, a beneficial functional outcome, and the smaller diameter of the left ventricle indicates less cardiac enlargement, also a beneficial outcome.

[4] = Right ventricle cardiomyopathy in pulmonary hypertension (bleomycin) model; type: in vivo, mouse
Text: FIG. 11. A61603 reduces right ventricle (RV) cardiomyopathy in pulmonary hypertension. Mice had bleomycin instilled into the trachea and treatment with A61603 or vehicle. […] Mice with the alpha-1A knocked out did worse (α1ABKO).
Studies in mice looking at alpha-1 agonist therapy, using A61603, in a model of right ventricular failure from pulmonary hypertension. Failure of the right ventricle (RV) is a serious consequence of HF due to disease of the left ventricle (LV), and is also seen as an isolated problem, e.g. in lung disease (e.g. lung fibrosis), where treatment is extremely limited. Experiments were conducted with A61603 therapy in a mouse model of RV cardiomyopathy caused by pulmonary hypertension, which in turn was caused by lung fibrosis. Installation of bleomycin into the lung, caused fibrosis and secondary pulmonary hypertension and RV failure. Mice were treated continuously with A61603 or vehicle.

cardiac myocytes = test: Cardiac cell protective and adaptive (anabolic) effects in vitro, comparison of alpha-1-agonists; type: cell-based; settings: neonatal rat and adult mouse cardiac myocytes, FIG. 1-3
α1A receptors = settings: cited from earlier work
α1AR = settings: Evans et al. (2011); cited from earlier work

## CS(=O)(=O)Nc1c(O)ccc2c1CCCC2C1=NCCN1 (stereo not shown) [A61603, N-[1-(4,5-dihydro-1H-imidazol-2-yl)-6-hydroxy-tetralin-5-yl]methanesulfonamide]
Kinase ERK
  activation of the kinase ERK: high efficacy and potency
[1]; 10 ng/kg/d, end of 1 week
  heart ERK activation: increased
  heart area (size): increased
  heart mRNAs: increased
[1]; alpha-1A KO mice, subcutaneous infusion 1 week
  BP effects in alpha-1A KO (AKO): absent
[1]; low dose, subcutaneous infusion 1 week, BP measured daily
  average BP: no change
[2]; A61603 vs vehicle group after TAC
  degree of overload (the gradient): the same in both groups
[2]; TAC
  adaptive proteins (myosin or MF20 and beta-myosin or bMHC): more adaptive proteins
  collagen fibrosis (Col I): less collagen fibrosis
  heart weight normalized to body weight (HW/BW): less abnormal enlargement
  protection (ERK): higher protection
[2]; treatment started 2 weeks after TAC, low dose, vs vehicle
  fractional shortening: improved
[3]; post-MI, normalized to vehicle
  atria size: smaller atria
  fibrosis: less fibrosis
  left ventricle end diastolic diameter (LVEDD): smaller
  myocyte size in the surviving heart (MC CSA): larger
[3]; post-MI, normalized to vehicle, FIG. 10
  fractional shortening (FS): higher
[3]; post-MI, treatment started 4 weeks after LAD ligation
  size of the MI: unchanged
[3]; treatment started 4 weeks after LAD ligation (MI), low dose, vs vehicle
  fractional shortening: stayed the same or improved
[4]; bleomycin into trachea, A61603 vs vehicle
  RV failure (RV weight normalized to body weight): reduced or prevented RV failure
[4]; bleomycin model
  function of RV muscle taken from treated mice, studied in vitro: better function
Cardiac myocytes
  potency and efficacy relative to several other alpha-1-agonists: more potent (i.e. worked at a lower dose) and efficacious (i.e. had a larger total effect)
α1A receptors; Knepper et al. (1995)
  potency at α1A receptors relative to α1B or α1D sites: at least 35 fold
α1A receptors
  potency as α1A AR agonist relative to phenylephrine, methoxamine and midodrine: more potent
α1AR
  cAMP accumulation through α1AR relative to cirazoline: stronger stimulator
